Test results as given in patent US20210395239A1 (Hoffmann-La Roche Inc., priority 2018, published 2021).
pIC50: −log10 of the molar value.

molecular target: T1, human TLR7 (Homo sapiens, UniProt Q9NYK1); assay: HEK293-Blue-hTLR-7 cells assay (SEAP reporter, R848 stimulation); assay type: cell-based; settings: HEK293-Blue-hTLR7 cells, R848, 20 hrs; read-out: HEK/hTLR7 IC50
T1 construct: host or cells: HEK293 (HEK-Blue hTLR7)
T1 sequence (Q9NYK1 27-1049): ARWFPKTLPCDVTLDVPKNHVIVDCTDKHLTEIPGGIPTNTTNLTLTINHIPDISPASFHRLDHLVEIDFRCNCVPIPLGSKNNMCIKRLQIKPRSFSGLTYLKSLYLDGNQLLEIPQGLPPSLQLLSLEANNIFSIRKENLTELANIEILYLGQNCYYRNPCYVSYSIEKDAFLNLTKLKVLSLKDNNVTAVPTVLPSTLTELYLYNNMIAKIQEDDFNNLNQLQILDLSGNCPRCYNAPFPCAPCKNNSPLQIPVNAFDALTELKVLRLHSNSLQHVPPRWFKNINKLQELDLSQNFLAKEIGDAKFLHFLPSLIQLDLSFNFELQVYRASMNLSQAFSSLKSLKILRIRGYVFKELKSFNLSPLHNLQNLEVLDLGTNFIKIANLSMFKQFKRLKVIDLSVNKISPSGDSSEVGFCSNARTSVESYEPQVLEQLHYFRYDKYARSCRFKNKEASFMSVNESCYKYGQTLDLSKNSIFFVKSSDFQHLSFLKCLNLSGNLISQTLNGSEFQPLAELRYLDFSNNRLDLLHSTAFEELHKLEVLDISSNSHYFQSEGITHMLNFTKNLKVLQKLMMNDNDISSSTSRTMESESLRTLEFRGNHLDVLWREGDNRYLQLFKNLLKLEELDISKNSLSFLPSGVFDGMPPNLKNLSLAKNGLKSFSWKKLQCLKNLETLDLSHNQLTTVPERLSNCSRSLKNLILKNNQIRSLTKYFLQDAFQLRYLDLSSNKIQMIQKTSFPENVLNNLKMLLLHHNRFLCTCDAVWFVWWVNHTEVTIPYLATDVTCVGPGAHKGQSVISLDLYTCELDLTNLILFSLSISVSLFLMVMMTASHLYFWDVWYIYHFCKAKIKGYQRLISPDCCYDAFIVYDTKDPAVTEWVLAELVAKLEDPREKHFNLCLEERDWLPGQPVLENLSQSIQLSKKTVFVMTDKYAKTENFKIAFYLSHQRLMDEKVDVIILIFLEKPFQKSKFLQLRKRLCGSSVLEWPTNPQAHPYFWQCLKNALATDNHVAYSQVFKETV
Method in brief: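 HEK293-Blue-hTLR7 cells (NF-κB/AP-1-driven SEAP reporter) were stimulated with R848 alongside serially diluted compound at 1% final DMSO for 20 h at 37 °C. Supernatant SEAP was then developed with QUANTI-Blue for 2 h at 37 °C and absorbance read at 620–655 nm; antagonism is measured as reduced reporter signal.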

Compound	pIC50
C[C@@H]1CN(c2ccc(C#N)n3ncc(F)c23)C[C@H](CN2CCN(c3ccc(N4CC5(CN(C)C5)C4)nc3)CC2)O1 [Example 170, 3-fluoro-4-[(2R,6S)-2-methyl-6-[[4-[6-(6-methyl-2,6-diazaspiro[3.3]heptan-2-yl)-3-pyridyl]piperazin-1-yl]methyl]morpholin-4-yl]pyrazolo[1,5-a]pyridine-7-carbonitrile]	8.22
C[C@@H]1CN(c2cc(=O)n(C)c3ncccc23)C[C@H](CN2CC(c3ccc(N4CCNCC4)cc3)C2)O1 [Example 171, 1-methyl-4-[(2R,6S)-2-methyl-6-[[3-(4-piperazin-1-ylphenyl)azetidin-1-yl]methyl]morpholin-4-yl]-1,8-naphthyridin-2-one]	7.42
C[C@@H]1CN(c2cc(=O)n(C)c3ncccc23)C[C@H](CN2CC(c3ccc(N4CC5(CNCCO5)C4)cc3)C2)O1 [Example 173, 1-methyl-4-[(2R,6S)-2-methyl-6-[[3-[4-(5-oxa-2,8-diazaspiro[3.5]nonan-2-yl)phenyl]azetidin-1-yl]methyl]morpholin-4-yl]-1,8-naphthyridin-2-one]	7.54
C[C@@H]1CN(c2ccc(C#N)n3ncc(F)c23)C[C@H](CN2CCN(c3ccc(N4CC[C@@H](N)[C@H](F)C4)nc3)CC2)O1 [Example 175, 4-[(2S,6R)-2-[[4-[6-[(3R,4R)-4-amino-3-fluoro-1-piperidyl]-3-pyridyl]piperazin-1-yl]methyl]-6-methyl-morpholin-4-yl]-3-fluoro-pyrazolo[1,5-a]pyridine-7-carbonitrile]	8.00
C[C@@H]1CN(c2cc(=O)n(C)c3ncccc23)C[C@H](CN2CC(c3ccc(N4CC(C)(N)C4)cc3)C2)O1 [Example 176, 4-[(2S,6R)-2-[[3-[4-(3-amino-3-methyl-azetidin-1-yl)phenyl]azetidin-1-yl]methyl]-6-methyl-morpholin-4-yl]-1-methyl-1,8-naphthyridin-2-one]	7.44
C[C@@H]1CN(c2ccc(C#N)n3ncc(F)c23)C[C@H](CN2CCN(c3ccc([C@@H]4CNCCO4)cc3)CC2)O1 [Example 177, 3-fluoro-4-[(2R,6S)-2-methyl-6-[[4-[4-[(2R)-morpholin-2-yl]phenyl]piperazin-1-yl]methyl]morpholin-4-yl]pyrazolo[1,5-a]pyridine-7-carbonitrile]	7.80
C[C@@H]1CN(c2ccc(C#N)n3ncc(F)c23)C[C@H](CN2CCN(c3ccc(N4CCOC5(CNC5)C4)nc3)CC2)O1 [Example 178, 3-fluoro-4-[(2R,6S)-2-methyl-6-[[4-[6-(5-oxa-2,8-diazaspiro[3.5]nonan-8-yl)-3-pyridyl]piperazin-1-yl]methyl]morpholin-4-yl]pyrazolo[1,5-a]pyridine-7-carbonitrile]	7.42
C[C@@H]1CN(c2ccc(C#N)n3ncc(F)c23)C[C@H](CN2CCN(c3ccc(N4CC5(CCN5)C4)nc3)CC2)O1 [Example 179, 4-[(2S,6R)-2-[[4-[6-(1,6-diazaspiro[3.3]heptan-6-yl)-3-pyridyl]piperazin-1-yl]methyl]-6-methyl-morpholin-4-yl]-3-fluoro-pyrazolo[1,5-a]pyridine-7-carbonitrile]	7.52
C[C@@H]1CN(c2cc(=O)n(C)c3ncccc23)C[C@H](CN2CC(c3ccc(N4CC5(CN(C)C5)C4)cc3)C2)O1 [Example 180, 1-methyl-4-[(2R,6S)-2-methyl-6-[[3-[4-(6-methyl-2,6-diazaspiro[3.3]heptan-2-yl)phenyl]azetidin-1-yl]methyl]morpholin-4-yl]-1,8-naphthyridin-2-one]	7.28
C[C@@H]1CN(c2cc(=O)n(C)c3ncccc23)C[C@H](CN2CC(c3ccc(N4C[C@H]5NCCO[C@@H]5C4)cc3)C2)O1 [Example 182, 4-[(2S,6R)-2-[[3-[4-[(4aR,7aR)-3,4,4a,5,7,7a-hexahydro-2H-pyrrolo[3,4-b][1,4]oxazin-6-yl]phenyl]azetidin-1-yl]methyl]-6-methyl-morpholin-4-yl]-1-methyl-1,8-naphthyridin-2-one]	7.59
C[C@@H]1CN(c2ccc(C#N)n3ncc(F)c23)C[C@H](CN2CCN(c3ccc([C@@H]4CNCCO4)c(F)c3)CC2)O1 [Example 184, 3-fluoro-4-[(2S,6R)-2-[[4-[3-fluoro-4-[(2R)-morpholin-2-yl]phenyl]piperazin-1-yl]methyl]-6-methyl-morpholin-4-yl]pyrazolo[1,5-a]pyridine-7-carbonitrile]	7.64
C[C@@H]1CN(c2ccc(C#N)n3ncc(F)c23)C[C@H](CN2CCN(c3ccc(C4(C)CNCCO4)cc3)CC2)O1 (stereo partly drawn) [Example 185, 3-fluoro-4-[(2R,6S)-2-methyl-6-[[4-[4-(2-methylmorpholin-2-yl)phenyl]piperazin-1-yl]methyl]morpholin-4-yl]pyrazolo[1,5-a]pyridine-7-carbonitrile]	7.41
C[C@@H]1CN(c2ccc(C#N)n3ncc(F)c23)C[C@H](CN2CCN(c3ccc(C[C@@H]4CNCCO4)cc3)CC2)O1 [Example 186, 3-fluoro-4-[(2R,6S)-2-methyl-6-[[4-[4-[[(2R)-morpholin-2-yl]methyl]phenyl]piperazin-1-yl]methyl]morpholin-4-yl]pyrazolo[1,5-a]pyridine-7-carbonitrile]	7.74
